Source: PMC9532535 (Acta Pharmaceutica Sinica. B, 2022)

Experiments:
[1] = Measurement of critical aggregation concentration; assay type: physicochemical; conditions: in water, 37 °C overnight, ACQ probe P2 fluorescence
Caco-2 monolayer = experiment: Transport across the Caco-2 monolayer; assay type: in vitro ADME; conditions: Caco-2 monolayer without Raji
[2] = ref [37]; cited from earlier work

CAC (critical aggregation concentration) [1] [mmol/L] | transport of PTX in the Caco-2 monolayer (Caco-2 monolayer) | Compound | plasma protein binding [2]
0.19 ± 0.01 |  | Choline oleate | 
 | negligible | CC(=O)O[C@H]1C(=O)[C@@]2(C)[C@H]([C@H](OC(=O)c3ccccc3)[C@]3(O)C[C@H](OC(=O)[C@H](O)[C@@H](NC(=O)c4ccccc4)c4ccccc4)C(C)=C1C3(C)C)[C@]1(OC(C)=O)CO[C@@H]1C[C@@H]2O [PTX, paclitaxel] | greater than 90%
0.37 ± 0.02 |  | CCCCCCCCCCCCCCCCCC(=O)[O-].C[N+](C)(C)CCO [Choline stearate] | 
